Where two headings read alike, the source gives them in different places.
Tests used:
[1] = target: T1, Full length USP8 (USP8FL) (Homo sapiens, UniProt P40818); assay: USP8FL (full length USP8) enzymatic inhibition, Ub-Rhodamine 110 hydrolysis in L-cysteine buffer; assay type: biochemical; details: USP8 FL 75 nM, Ub-Rho 0.1 μM, L-cysteine buffer
T1 construct: purchased BostonBiochem E-520
T1 sequence (P40818 1-1118): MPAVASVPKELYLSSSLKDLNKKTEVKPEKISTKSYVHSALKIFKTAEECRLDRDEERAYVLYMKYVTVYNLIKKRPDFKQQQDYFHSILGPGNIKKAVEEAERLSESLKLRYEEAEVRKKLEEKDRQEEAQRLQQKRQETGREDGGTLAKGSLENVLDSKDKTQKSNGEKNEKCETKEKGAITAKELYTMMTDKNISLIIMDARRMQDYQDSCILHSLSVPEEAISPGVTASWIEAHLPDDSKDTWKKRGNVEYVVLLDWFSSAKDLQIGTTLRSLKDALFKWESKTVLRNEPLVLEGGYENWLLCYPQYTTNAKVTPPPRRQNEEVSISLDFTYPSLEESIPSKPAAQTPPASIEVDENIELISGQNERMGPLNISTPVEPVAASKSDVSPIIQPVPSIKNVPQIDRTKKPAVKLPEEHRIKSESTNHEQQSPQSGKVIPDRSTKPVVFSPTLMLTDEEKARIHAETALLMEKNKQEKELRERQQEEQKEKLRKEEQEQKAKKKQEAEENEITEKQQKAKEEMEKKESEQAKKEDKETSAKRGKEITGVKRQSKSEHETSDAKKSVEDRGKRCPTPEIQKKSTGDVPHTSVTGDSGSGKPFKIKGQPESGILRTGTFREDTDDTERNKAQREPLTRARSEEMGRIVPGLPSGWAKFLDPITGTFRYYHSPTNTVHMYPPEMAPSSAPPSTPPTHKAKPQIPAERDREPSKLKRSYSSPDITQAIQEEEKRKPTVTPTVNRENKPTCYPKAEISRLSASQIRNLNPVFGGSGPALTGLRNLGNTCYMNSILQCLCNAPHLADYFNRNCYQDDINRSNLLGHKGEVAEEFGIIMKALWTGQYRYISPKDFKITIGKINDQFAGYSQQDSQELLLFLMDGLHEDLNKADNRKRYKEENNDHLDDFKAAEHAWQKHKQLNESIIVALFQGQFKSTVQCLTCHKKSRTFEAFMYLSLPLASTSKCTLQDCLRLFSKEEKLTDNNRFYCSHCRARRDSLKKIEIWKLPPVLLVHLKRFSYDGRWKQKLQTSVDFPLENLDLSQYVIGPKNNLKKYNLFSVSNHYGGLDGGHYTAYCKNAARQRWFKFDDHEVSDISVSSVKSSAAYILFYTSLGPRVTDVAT
Description: USP8 FL (USP8 Full Length) was incubated at a concentration of 75 nM in the presence of Ub-Rho (UBIQUIGENT ref. 60-0117-050) at a final concentration of 0.1 μM, in conditions ensuring linearity of enzyme activity throughout the assay in a specific buffer. Compounds were added to the reaction mix at different doses just before the substrate. The enzymatic reaction kinetics were monitored by measuring fluorescence elicited by the hydrolysis of Ub-Rho over 30 min.
In this setup, an in-house purified catalytic domain of USP8 (USP8CD) was used at a concentration of 80 nM in the presence of the artificial substrate Ubiquitin-Rhodamine 110 (Ub-Rho) (ref: 60-0117-050 Ubiquigent) at a final concentration of 0.1 μM, in conditions ensuring linearity of enzyme activity throughout the assay incubation time. Enzymatic assay was performed in a Tris HCl buffer (40 mM Tris HCl pH 7.4, Ovalbumine 0.5 mg/ml, Cysteine HCl 5.5 mM). Compounds to be tested were added to the reaction mix and incubated with enzyme for 20 min, before the substrate. The enzymatic reaction kinetics were monitored by measuring fluorescence elicited by the hydrolysis of the peptidyl Ub-Rho over 30 minutes. The negative control was the solvent DMSO at 1%.
Full length USP8 (USPBFL) (BostonBiochem ref. E-520) were used at a concentration of 75 nM in the presence of a ubiquitin substrate, i.e., the Ub-Rhodamine 110 (Ub-Rho) (Ubiquigent ref. 60-0117-050) at a final concentration of 0.1 μM. Enzymatic assays were performed as described for USP8-CD except that USP-FL was used at a concentration of 75 nM. The compounds were used at a final concentration of 0.1, 1, 5, 10, 50 and 100 μM in DMSO 0.5%. The USP8 catalytic activity was monitored both before adding the substrate (TO) and after twenty minutes of incubation at room temperature (Final Time TF). The enzymatic reaction kinetics were monitored by measuring fluorescence elicited by the hydrolysis of the Ub-Rho bound over 30 minutes.

AtT-20 pituitary cells = assay: Inhibition of ACTH secretion in pituitary cells (ACTH EIA on supernatant); assay type: cell-based, mouse
Description: ACTH release (percent comparison to DMSO control). Briefly, 12,500 AtT-20 cells per well were seeded in a 96-well plate. After 24 hours exposure, cells were treated with each compound at the indicated final concentration, or with DMSO alone (control condition compound solvent) or with corticotropin releasing factor (indicated CRF) at 100 nM. After a 24-hour treatment, cell supernatants were collected and stored at −80° C., prior to quantification of ACTH concentration using ACTH chemiluminescent EIA kit (Phoenix Pharmaceuticals, Inc.). Determination of ACTH concentrations was based on the best-fitting ACTH standard curve and P values were calculated using one-way ANOVA, using Prism 9 software (GraphPad Software, Inc.) ns (P=0.12). **P<0.002. ***P<0.001. All compounds were tested in technical triplicates. One representative experiment out of three is presented.
FIG. 4: illustrates a decrease of ACTH secretion by AtT-20 cells after 24-hour treatment of halogenated salicylanilides. 12,500 AtT-20 cells per well were seeded in a 96-well plate. […] After a 24-hour treatment, cell supernatants were collected and stored at −80° C., prior to quantification of ACTH concentration using ACTH chemiluminescent EIA kit (Phoenix Pharmaceuticals, Inc.). Determination of ACTH concentrations was based on the best-fitting ACTH standard curve and P values were calculated by ordinary one-way ANOVA using Prism 6 software (GraphPad Software, Inc), ns (not significant), **** P<0.0001. Compounds were tested in technical triplicates.
12,500 AtT-20 cells per well were seeded in a 96-well plate. After 24 hours, cells were treated with compounds (corresponding chemical formula are indicated in Table 1) at 25 μM final concentration, or with DMSO alone (compound solvent). After a 24-hour treatment, cell supernatants were collected and stored at −80° C., prior to quantification of ACTH concentration using ACTH chemiluminescent EIA kit (Phoenix Pharmaceuticals, Inc.). Determination of ACTH concentrations was based on the best-fitting ACTH standard curve and P values were calculated by ordinary one-way ANOVA using Prism 6 software (GraphPad Software, Inc), ns (not significant), *P<0.05, ***P<0,0001. Compounds were tested in technical triplicates.
Mouse AtT-20 pituitary cell line were used as a powerful and well-characterized model to monitor ACTH secretion using an enzyme immunoassay (EIA) kit.
Mouse AtT-20 cells were obtained from the American Type Culture Collection and maintained on DMEM containing 10% fetal bovine serum, 100 μg/mL streptomycin and 100 U/mL penicillin at 37° C. with 5% CO2 after recovery from long-term storage on liquid nitrogen-vapor phase.
The ACTH secretion levels of AtT-20 cell culture was monitored on the supernatant of AtT-20 cells treated or not by increasing doses of compounds belonging to the family of halogenated salicylanilides chemicals.
1.25×10^4 AtT20 cells were seeded on polylysine-coated 96-well culture vessels on 150 μL of complete medium. After 24 hours, cells were treated with stock compounds to a final DMSO concentration of 0.5%. After 24 hours of treatment, cell culture supernatant was collected, cleared for 10 min at 1000×g at 4° C., diluted or not in assay buffer (Phoenix Peptide ACTH EIA EK-001-21) and frozen at −80° C. for subsequent processing according to the instructions of the kit's manufacturer.

AtT-20 cells = assay: Cytotoxicity towards AtT-20 cells (PrestoBlue viability assay)
[2] = read-out: USP8FL inhbition IC50 [μM] (CI: Confidence Interval)
[3] = Mus musculus, AtT20, 25 μM, 24-hour treatment, AtT-20 supernatant, read-out: ACTH secretion % of control (DMSO) at 25 μM

Compound	IC50 [1, 2]	inhibition of ACTH at 25 μM, in words (FIG. 4, FIG. 5) (AtT-20 pituitary cells; 25 μM, 24-hour treatment)	activity at 25 µM (AtT-20 pituitary cells; [3])	AtT-20 cell viability (PrestoBlue assay) % of control (DMSO) at 25 μM Mean (SD) (AtT-20 cells; 24-hour exposure)	other results
Cc1ccc(NC(=O)Cn2ccccc2=O)c(OCc2ccccc2)c1 [Z738998144]	> 40 µM	ineffective	90%	95.98 (15.33) %	
O=C(Nc1ccccc1)c1ccccc1O [Salicylanilide, reference compound]		ineffective		105.4 (14.77) %	IC50 ([1]; USP8FL inhbition IC50 [μM] (CI: Confidence Interval)): > 40 µM; activity at 25 µM (AtT-20 pituitary cells; Mus musculus, AtT20, 24 h, read-out: ACTH secretion % of control (DMSO) at 25 μM, 25 μM, 24-hour treatment, AtT-20 supernatant): 99%
O=C(NCc1cccc(OCc2ccccn2)c1)c1csc(Br)c1 [Z424433412]	> 40 µM	ineffective	80%	98.93 (14.69) %	inhibition at 25 µM (AtT-20 pituitary cells; Mus musculus, AtT20, 25 μM, 24-hour treatment, p<0.05): 20%
O=C(Nc1ccc(Cl)cc1C(=O)c1ccccc1F)c1ccc(=O)[nH]c1 [Z220328740]	> 40 µM	ineffective		102.9 (15.16) %	ACTH secretion % of control (DMSO) at 25 μM (AtT-20 pituitary cells; 25 μM, 24-hour treatment, AtT-20 supernatant): 82%
Cc1ccc(NC(=O)c2cc(I)cc(I)c2O)cc1 [Amb8477380]	14.6 µM	significant inhibition	66%	93.51 (11.59) %	
O=C(Nc1ccc(Cl)cc1)c1cc(I)cc(I)c1O [Amb1935028]	11.9 µM	significant inhibition	32%	58.81 (34.11) %	cytotoxicity on AtT-20 cells, in words (FIG. 6) (AtT-20 cells; 25 μM for 24 hours): partially cytotoxic
CC(=O)Oc1c(I)cc(I)cc1C(=O)Nc1ccc(Cl)cc1 [Clioxanide, reference compound]	33.2 µM	significant inhibition	57%	94.21 (12.30) %	
O=C(Nc1cc(Cl)ccc1Cl)c1cc(I)cc(I)c1O [Amb8477378]	13 µM	significant inhibition	41%	95.72 (11.42) %	
O=C(Nc1ccc([N+](=O)[O-])cc1Cl)c1cc(Cl)ccc1O [Niclosamide, reference compound]	61 µM	significant inhibition			reduction of ACTH secretion levels (AtT-20 pituitary cells; 0.5 μM): 27%; reduction of ACTH secretion levels (AtT-20 pituitary cells; 1.0 μM): 41%; activity at 27 µM (AtT-20 pituitary cells; Mus musculus, AtT20, 27 μM, 24-hour treatment, AtT-20 supernatant, read-out: ACTH secretion % of control (DMSO) (at 27 μM)): 41%; dose-dependent inhibition of ACTH (FIG. 3) (AtT-20 pituitary cells; increasing concentrations, 24-hour treatment): significant dose-dependent inhibition; toxicity in AtT-20 cells, in words (AtT-20 cells; 0.5 μM): no significant toxicity; toxicity in AtT-20 cells, in words (AtT-20 cells; 1.0 μM): no significant toxicity; AtT-20 cell viability (PrestoBlue assay) % of control (DMSO) (at 27 μM) Mean (SD) (AtT-20 cells; 27 μM, 24-hour exposure): 50% (12,40) (at 27 μM); dose-dependent viability assay, in words (FIG. 7) (AtT-20 cells; AtT-20 cells, 24-hour exposure, several doses): considerable effects on viability upon higher doses
O=C(Nc1ccc(Cl)cc1Cl)c1cc(I)cc(I)c1O [Amb8487151]	4.34 µM	significant inhibition	44%	89.58 (10.11) %	

Reference: US20260207535A1, “CRIBLAGE INHIBITEURS USP8” (COMMISSARIAT A L'ENERGIE ATOMIQUE ET AUX ENERGIES …, priority 2022, published 2026)
